Data taken from article PMC12954580, “Multivalent glycoligands with lectin/enzyme dual specificity: self-deliverable glycosidase regulators” (Chemical Communications (Cambridge, England), 2019).

What was measured:
[1] = biological target: T1, concanavalin A (ConA) (Canavalia ensiformis, UniProt P02866); assay: Enzyme-linked lectin assay (ELLA), HRP-ConA/mannan binding inhibition; set-up: species or system Concanavalia einsiformis; conditions: Figure S19A, values printed over bars, axis log [IC50, M]
T1 construct: purchased
Procedure: The absorbance of the resulting mixture was determined at 405 nm.

[2] = biological target: T2, α-mannosidase (jack beans) (Canavalia ensiformis, UniProt C0HJB3); assay: Enzymatic stability / substrate behaviour towards glycosidases (gas chromatography); type: biochemical; conditions: control experiment
T2 construct: purchased; host or cells: jack beans
T2 sequence (C0HJB3 1-981): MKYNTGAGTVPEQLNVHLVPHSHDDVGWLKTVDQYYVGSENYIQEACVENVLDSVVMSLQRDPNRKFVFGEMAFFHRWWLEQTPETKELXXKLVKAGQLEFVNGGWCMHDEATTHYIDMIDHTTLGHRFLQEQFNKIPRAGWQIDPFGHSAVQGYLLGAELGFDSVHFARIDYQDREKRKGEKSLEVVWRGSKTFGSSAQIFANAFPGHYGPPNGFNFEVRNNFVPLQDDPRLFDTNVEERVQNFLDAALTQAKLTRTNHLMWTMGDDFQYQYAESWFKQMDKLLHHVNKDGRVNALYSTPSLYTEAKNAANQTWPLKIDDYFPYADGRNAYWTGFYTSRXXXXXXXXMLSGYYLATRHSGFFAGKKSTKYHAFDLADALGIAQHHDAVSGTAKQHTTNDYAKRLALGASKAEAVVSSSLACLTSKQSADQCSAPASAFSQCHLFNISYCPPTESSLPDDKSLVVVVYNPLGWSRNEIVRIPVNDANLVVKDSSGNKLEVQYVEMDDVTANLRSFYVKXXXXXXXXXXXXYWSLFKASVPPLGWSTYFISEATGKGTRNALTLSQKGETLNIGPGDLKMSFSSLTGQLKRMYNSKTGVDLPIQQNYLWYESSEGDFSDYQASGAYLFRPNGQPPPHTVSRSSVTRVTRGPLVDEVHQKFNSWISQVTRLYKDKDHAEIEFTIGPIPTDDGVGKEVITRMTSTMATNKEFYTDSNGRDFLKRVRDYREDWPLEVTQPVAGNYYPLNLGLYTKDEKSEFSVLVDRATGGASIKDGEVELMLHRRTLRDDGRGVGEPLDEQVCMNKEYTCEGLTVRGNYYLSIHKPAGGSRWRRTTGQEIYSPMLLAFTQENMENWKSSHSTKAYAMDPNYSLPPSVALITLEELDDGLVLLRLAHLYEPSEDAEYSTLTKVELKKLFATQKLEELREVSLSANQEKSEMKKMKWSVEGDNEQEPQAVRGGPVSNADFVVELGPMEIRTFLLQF
From the text: Preliminary evidence on the feasibility of achieving disparate glycosidase inhibition selectivity with the multivalent glycoclusters 3–8 and, at the same time, retaining intrinsic lectin binding properties was achieved by conducting control experiments using both commercial glycosidases and lectins. The glycosidase panel included α- and β-glucosidases (S. cerevisiae and bovine liver), α- and β-galactosidases (green coffee beans and E. coli) and α- and β-mannosidases (jack beans and H. pomatia). Prior to kinetic determination of the corresponding inhibition constant (Ki) values (Table S1 and Fig. S9–S18, ESI ^†), the enzymatic stability was investigated by gas chromatography. […] In all the other cases the α-mannopyranoside linkages remained stable, meaning that any effect observed in the enzyme activity should be ascribed to an inhibitor and not to a substrate behavior.

[3] = biological target: T3, recombinant human MMR (macrophage mannose receptor) (Homo sapiens, UniProt P22897); assay: Modified ELLA: inhibition of rhMMR binding to yeast mannan; conditions: mean of three independent experiments ± SD
T3 sequence (P22897 19-1456): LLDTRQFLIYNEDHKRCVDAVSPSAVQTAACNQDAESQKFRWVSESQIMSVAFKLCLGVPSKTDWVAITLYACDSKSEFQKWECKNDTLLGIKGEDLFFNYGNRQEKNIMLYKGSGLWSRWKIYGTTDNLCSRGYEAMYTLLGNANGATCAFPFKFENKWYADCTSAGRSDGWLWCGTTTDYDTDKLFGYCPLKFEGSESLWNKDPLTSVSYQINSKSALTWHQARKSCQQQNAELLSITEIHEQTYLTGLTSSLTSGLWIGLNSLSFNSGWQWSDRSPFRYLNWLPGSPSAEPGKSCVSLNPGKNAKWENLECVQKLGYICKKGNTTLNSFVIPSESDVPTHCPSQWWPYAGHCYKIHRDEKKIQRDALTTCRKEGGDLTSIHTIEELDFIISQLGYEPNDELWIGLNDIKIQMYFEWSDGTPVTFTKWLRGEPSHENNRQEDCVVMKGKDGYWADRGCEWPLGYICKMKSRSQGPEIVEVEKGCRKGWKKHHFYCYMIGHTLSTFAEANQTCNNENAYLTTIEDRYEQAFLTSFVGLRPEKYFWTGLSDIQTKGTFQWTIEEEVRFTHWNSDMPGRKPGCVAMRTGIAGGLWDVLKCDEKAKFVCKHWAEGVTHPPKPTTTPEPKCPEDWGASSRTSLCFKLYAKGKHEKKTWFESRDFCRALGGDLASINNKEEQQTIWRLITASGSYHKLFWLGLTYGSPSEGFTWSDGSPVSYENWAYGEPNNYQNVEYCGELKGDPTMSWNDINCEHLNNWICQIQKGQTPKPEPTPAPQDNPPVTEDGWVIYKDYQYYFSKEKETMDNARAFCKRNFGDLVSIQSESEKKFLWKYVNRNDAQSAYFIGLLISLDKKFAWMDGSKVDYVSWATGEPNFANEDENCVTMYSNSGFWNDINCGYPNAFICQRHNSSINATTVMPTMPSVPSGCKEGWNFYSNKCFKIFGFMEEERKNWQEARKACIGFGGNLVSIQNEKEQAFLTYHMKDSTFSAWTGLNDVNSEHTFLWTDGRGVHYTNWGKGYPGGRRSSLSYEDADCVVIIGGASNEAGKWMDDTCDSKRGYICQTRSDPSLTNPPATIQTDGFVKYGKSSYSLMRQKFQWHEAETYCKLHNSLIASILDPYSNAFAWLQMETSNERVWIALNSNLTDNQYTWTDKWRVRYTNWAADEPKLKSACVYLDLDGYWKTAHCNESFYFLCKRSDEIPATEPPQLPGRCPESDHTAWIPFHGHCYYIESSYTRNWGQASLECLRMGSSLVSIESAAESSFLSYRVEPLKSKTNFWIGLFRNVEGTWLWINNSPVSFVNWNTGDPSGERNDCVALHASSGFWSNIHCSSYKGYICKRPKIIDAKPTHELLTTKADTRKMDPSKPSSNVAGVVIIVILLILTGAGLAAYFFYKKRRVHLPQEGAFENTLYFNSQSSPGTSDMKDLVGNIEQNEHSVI
Procedure: conjugates 3-8 the above protocol was repeated using in the last incubation step a solution of the desired HRP-ConA lectin concentration (50 µL per well) that contained inhibitors targeting the glycone, glycone/aglycone and surface sites (9-13; 500 µM; Figure S21B). Control […]
in the absence of the enzyme.
Determination of recombinant human MMR (rhMMR) binding affinities . The wells of mannan-coated microplates, prepared as above described, were filled with 100 μL of serial dilutions of rhMMR from a 10 µg·mL-1 stock solution in PBS (pH 7.3 containing 0.1 mM Ca2+ and 0.1 mM Mn2+), and incubated at 37 °C for 1 h. The plates were washed three times with PBST as described above and 100 µL of a solution of biotinylated anti -human MMR antibody (0.2 µg·mL_1, R&D Systems) in PBS was added in each well, and the plates were further incubated for 1 h at 37 °C.
The complex NeutrAvidin-biotinylated HRP was preformed separately by successively adding to Tris buffer (9.6 mL, 50 mM, pH 7.6) a solution of NeutrAvidin (100 µg·mL-1 in Tris buffer, 1.2 mL, Thermo Scientific) and a solution of biotin-conjugated HRP (25 µg·mL-1 in Tris buffer, 1.2 mL, Thermo Scientific). […] After 5 min at RT, the optical density was measured at 415 nm. […]
inhibition experiments. […] Optical density at 415 nm was determined after 5 min. The percent of inhibition was calculated as above indicated for a typical ELLA experiment.

Row | Compound | IC50 [1] [µM] | Substrate behaviour towards GH38 jack bean Manase [2] | IC50 [3] [µM]
1 | CO[C@H]1O[C@H](CO)[C@@H](O)[C@H](O)[C@@H]1O [MeMan, methyl α-D-mannopyranoside] | 800 | – | –
2 | Man9 | – | substrates | 3.9 ± 0.5
